Measurements published in patent US9662310B2, “Cyclopropanecarboxylic acid derivative” (DAIICHI SANKYO COMPANY, LIMITED, priority 2010, dated 2017).
Counter-ions that a name gives are not always drawn.

Target: TAFIa (Homo sapiens (Human), UniProt Q96IY4)
Assay: Determination of TAFIa enzyme inhibitory activity (FAAK substrate degradation)
Format: biochemical
Settings: TAFI activated with human thrombin / rabbit lung thrombomodulin; substrate FAAK, absorbance at 330 nm; read-out: TAFIa IC50
Method: Determination of TAFIa Enzyme Inhibitory Activity
HEPES buffered saline (20 mM HEPES, 150 mM NaCl, pH 7.4; hereinafter, referred to as HBS) was used in the preparation of a reaction solution. To 12 μL of a 250 μg/mL TAFI solution, 30 μL of an HBS solution containing 4 U/mL human thrombin, 12 U/mL rabbit lung thrombomodulin, and 12 mM CaCl2 was added, and the mixture was gently stirred. Then, TAFI was activated at room temperature. Ten minutes later, thrombin was neutralized by the addition of 10 μL of 100 μM PPACK (thrombin inhibitor) to terminate the activation of TAFI. The formed TAFIa was stored in ice and diluted immediately before use in determination with 2050 μL of an HBS solution containing BSA (bovine serum albumin) adjusted to 0.1% in terms of the final concentration.
(2) Determination of TAFIa Inhibitory Activity
A test substance was dissolved in HBS to prepare a 10-fold dilution series of evaluation concentrations. 80 μL of the TAFIa solution and 10 μL of the test substance were added to each well of a 96-well plate and mixed by shaking for 10 minutes. 10 μL of furylacryloyl-alanyl-lysine (FAAK) adjusted to 5 mg/mL was added to each well, and the change in the absorbance of this mixed solution at 330 nm was read for 30 minutes to determine the degradation rate of the substrate.
(3) Calculation of Inhibitory Activity IC50
The degradation rate of the substrate in each well was applied to a standard curve prepared using the dilution series of the TAFIa solution to calculate TAFIa activity.

Sequence of TAFIa (Q96IY4 115-423): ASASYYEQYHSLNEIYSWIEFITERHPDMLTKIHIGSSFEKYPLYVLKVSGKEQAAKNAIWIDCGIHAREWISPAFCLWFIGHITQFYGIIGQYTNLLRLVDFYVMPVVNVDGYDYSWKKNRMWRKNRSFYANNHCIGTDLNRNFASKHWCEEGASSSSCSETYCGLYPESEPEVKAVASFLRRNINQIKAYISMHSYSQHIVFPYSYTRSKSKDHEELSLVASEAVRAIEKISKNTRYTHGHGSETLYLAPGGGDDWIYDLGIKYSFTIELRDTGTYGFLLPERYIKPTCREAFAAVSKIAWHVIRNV

| IC50 | Structure (SMILES) |
| --- | --- |
| 30 nM | NCCC[C@H]1C[C@]1(C(=O)O)c1cn(-c2ncccn2)cn1 (relative stereo) [Example 39, (1R*,2S*)-2-(3-Aminopropyl)-1-(1-pyrimidin-2-yl-1H-imidazol-4-yl)cyclopropanecarboxylic acid] |
| 26 nM | NCCC[C@H]1C[C@]1(C(=O)O)c1cn(-c2ccc3occc3c2)cn1 (relative stereo) [Example 43, (1R*,2S*)-2-(3-Aminopropyl)-1-[1-(1-benzofuran-5-yl)-1H-imidazol-4-yl]cyclopropanecarboxylic acid] |
| 63 nM | NCCC[C@H]1C[C@]1(C(=O)O)c1cn(-c2ccc(Cl)cn2)cn1 (relative stereo) [Example 45, (1R*,2S*)-2-(3-Aminopropyl)-1-[1-(5-chloropyridin-2-yl)-1H-imidazol-4-yl]cyclopropanecarboxylic acid] |
| 10000 nM | CCOC(=O)[C@]1(c2cn(-c3ccc(C)cc3)cn2)C[C@@H]1CCCN (relative stereo) [Example 26, Ethyl (1R*,2S*)-2-(3-aminopropyl)-1-[1-(4-methylphenyl)-1H-imidazol-4-yl]cyclopropanecarboxylate hydrochloride] |
| 54 nM | NCCC[C@H]1C[C@]1(C(=O)O)c1cn(-c2cccc3ccccc23)cn1 (relative stereo) [Example 47, (1R*,2S*)-2-(3-Aminopropyl)-1-[1-(1-naphthyl)-1H-imidazol-4-yl]cyclopropanecarboxylic acid] |
| 14 nM | C[C@@H](CN)C[C@H]1C[C@]1(C(=O)O)c1cn(-c2ccccc2)cn1 [Example 50, (1R,2S)-2-[(2R)-3-Amino-2-methylpropyl]-1-(1-phenyl-1H-imidazol-4-yl)cyclopropanecarboxylic acid] |
| 35 nM | CC(CN)C[C@H]1C[C@]1(C(=O)O)c1cn(-c2ccccc2)cn1 (relative stereo) [Example 32, (1R*,2S*)-2-(3-Amino-2-methylpropyl)-1-(1-phenyl-1H-imidazol-4-yl)cyclopropanecarboxylic acid] |
| 25 nM | NCCC[C@H]1C[C@]1(C(=O)O)c1cn(-c2ccc(Cl)cc2)cn1 (relative stereo) [Example 18, (1R*,2S*)-2-(3-Aminopropyl)-1-[1-(4-chlorophenyl)-1H-imidazol-4-yl]cyclopropanecarboxylic acid] |
| 16 nM | NCCC[C@H]1C[C@]1(C(=O)O)c1cn(-c2cc3ccccc3cn2)cn1 (relative stereo) [Example 46, (1R*,2S*)-2-(3-Aminopropyl)-1-(1-isoquinolin-3-yl-1H-imidazol-4-yl)cyclopropanecarboxylic acid] |
| 98 nM | NCCC[C@H]1C[C@]1(C(=O)O)c1cn(-c2cccnc2)cn1 (relative stereo) [Example 24, (1R*,2S*)-2-(3-Aminopropyl)-1-(1-pyridin-3-yl-1H-imidazol-4-yl)cyclopropanecarboxylic acid] |
| > 300 nM | CC(C)(CN)C[C@@H]1C[C@]1(C(=O)O)c1cn(-c2ccccc2)cn1 (relative stereo) [Example 52, (1R*,2R*)-2-(3-Amino-2,2-dimethylpropyl)-1-(1-phenyl-1H-imidazol-4-yl]cyclopropanecarboxylic acid] |
| 70 nM | NCCC[C@H]1C[C@]1(C(=O)O)c1cn(-c2cccc(Cl)c2)cn1 (relative stereo) [Example 19, (1R*,2S*)-2-(3-Aminopropyl)-1-[1-(3-chlorophenyl)-1H-imidazol-4-yl]cyclopropanecarboxylic acid] |
| 36 nM | CC(CCN)[C@H]1C[C@]1(C(=O)O)c1cn(-c2ccccc2)cn1 (relative stereo) [Example 36, (1R*,2R*)-2-(3-Amino-1-methylpropyl)-1-(1-phenyl-1H-imidazol-4-yl)cyclopropanecarboxylic acid] |
| 7.9 nM | CC[C@@H](CN)C[C@H]1C[C@]1(C(=O)O)c1cn(-c2ccccc2)cn1 [Example 62, (1R,2S)-2-[(2R)-2-(Aminomethyl)butyl]-1-(1-phenyl-1H-imidazol-4-yl)cyclopropanecarboxylic acid] |

More lines, now with the values behind:

| Structure (SMILES) | IC50 |
| --- | --- |
| Cc1ccc(-n2cnc([C@@]3(C(=O)O)C[C@@H]3C[C@@H](C)CN)c2)nc1 [Example 58, (1R,2S)-2-[(2R)-3-Amino-2-methylpropyl]-1-[1-(5-methylpyridin-2-yl)-1H-imidazol-4-yl]cyclopropanecarboxylic acid] | 8.7 nM |
| NCCC[C@H]1C[C@]1(C(=O)O)c1cn(-c2ccc(F)c(F)c2)cn1 (relative stereo) [Example 17, (1R*,2S*)-2-(3-Aminopropyl)-1-[1-(3,4-difluorophenyl)-1H-imidazol-4-yl]cyclopropanecarboxylic acid] | 61 nM |
| C[C@H](CN)C[C@@H]1C[C@@]1(C(=O)O)c1cn(-c2ccccn2)cn1 [Example 57, (1S,2R)-2-[(2S)-3-Amino-2-methylpropyl]-1-(1-pyridin-2-yl-1H-imidazol-4-yl]cyclopropanecarboxylic acid] | 490 nM |
| Cc1ccccc1-n1cnc([C@@]2(C(=O)O)C[C@@H]2CCCN)c1 (relative stereo) [Example 9, (1R*,2S*)-2-(3-Aminopropyl)-1-[1-(2-methylphenyl)-1H-imidazol-4-yl]cyclopropanecarboxylic acid] | > 300 nM |
| CC[C@@H](CN)C[C@@H]1C[C@@]1(C(=O)O)c1cn(-c2ccccn2)cn1 [Example 61, (1S,2R)-2-[(2R)-2-(Aminomethyl)butyl]-1-(1-pyridin-2-yl-1H-imidazol-4-yl)cyclopropanecarboxylic acid] | 360 nM |
| Cc1ccc(-n2cnc([C@@]3(C(=O)O)C[C@@H]3CCCN)c2)cc1 (relative stereo) [Example 7, (1R*,2S*)-2-(3-Aminopropyl)-1-[1-(4-methylphenyl)-1H-imidazol-4-yl]cyclopropanecarboxylic acid] | 16 nM |
| NCCC[C@H]1C[C@]1(C(=O)O)c1cn(-c2ccccc2)cn1 [Example 30, (1R,2S)-2-(3-Aminopropyl)-1-(1-phenyl-1H-imidazol-4-yl)cyclopropanecarboxylic acid] | 13 nM |
| NCCC[C@H]1C[C@]1(C(=O)O)c1cn(-c2ccccc2)cn1 (relative stereo) [Example 6, (1R*,2S*)-2-(3-Aminopropyl)-1-(1-phenyl-1H-imidazol-4-yl)cyclopropanecarboxylic acid] | 27 nM |
| C[C@@H](CN)C[C@H]1C[C@]1(C(=O)O)c1cn(-c2ccccn2)cn1 [Example 54, (1R,2S)-2-[(2R)-3-Amino-2-methylpropyl]-1-(1-pyridin-2-yl-1H-imidazol-4-yl]cyclopropanecarboxylic acid] | 11 nM |
| NCCC[C@H]1C[C@]1(C(=O)O)c1cn(-c2ccccn2)cn1 [Example 48, (1R,2S)-2-(3-Aminopropyl)-1-(1-pyridin-2-yl-1H-imidazol-4-yl)cyclopropanecarboxylic acid] | 11 nM |
| NCCC[C@H]1C[C@]1(C(=O)O)c1cn(-c2ccc(Oc3ccccc3)cc2)cn1 (relative stereo) [Example 16, (1R*,2S*)-2-(3-Aminopropyl)-1-[1-(4-phenoxyphenyl)-1H-imidazol-4-yl]cyclopropanecarboxylic acid] | 52 nM |
| CCCn1cnc([C@@]2(C(=O)O)C[C@@H]2CCCN)c1 (relative stereo) [Example 3, (1R*,2S*)-2-(3-Aminopropyl)-1-(1-propyl-1H-imidazol-4-yl)cyclopropanecarboxylic acid] | 97 nM |
| C[C@H](CN)C[C@H]1C[C@]1(C(=O)O)c1cn(-c2ccccn2)cn1 [Example 56, (1R,2S)-2-[(2S)-3-Amino-2-methylpropyl]-1-(1-pyridin-2-yl-1H-imidazol-4-yl]cyclopropanecarboxylic acid] | 33 nM |
| Cc1ccc(-n2cnc([C@@]3(C(=O)O)C[C@@H]3CCCN)c2)cc1C (relative stereo) [Example 10, (1R*,2S*)-2-(3-Aminopropyl)-1-[1-(3,4-dimethylphenyl)-1H-imidazol-4-yl]cyclopropanecarboxylic acid] | 42 nM |
| C[C@H](CCN)C1CC1(C(=O)O)c1cn(-c2ccccn2)cn1 (stereo partly drawn) [Example 68, 2-[(2R)-4-Aminobutane-2-yl]-1-[1-(pyridin-2-yl)-1H-imidazol-4-yl)cyclopropanecarboxylic acid] | 12 nM |
| CC[C@@H](CN)C[C@H]1C[C@]1(C(=O)O)c1cn(-c2ccccn2)cn1 [Example 60, (1R,2S)-2-[(2R)-2-(Aminomethyl)butyl]-1-(1-pyridin-2-yl-1H-imidazol-4-yl)cyclopropanecarboxylic acid] | 8.3 nM |

Same assay, conditions: read-out: TAFIa IC50

| Structure (SMILES) | IC50 |
| --- | --- |
| CCC[C@@H](CN)C[C@H]1C[C@]1(C(=O)O)c1cn(-c2ccccn2)cn1 [Example 66, (1R,2S)-2-[(2R)-2-(Aminomethyl)pentyl]-1-(1-pyridin-2-yl-1H-imidazol-4-yl)cyclopropanecarboxylic acid] | 41 nM |
| CC(C)(C)CCn1cnc([C@@]2(C(=O)O)C[C@@H]2CCCN)c1 [Example 28, (1R,2S)-2-(3-Aminopropyl)-1-[1-(3,3-dimethylbutyl)-1H-imidazol-4-yl]cyclopropanecarboxylic acid] | 4.5 nM |
